Laboratory results as given in US20240246913A1, “2-CARBOXYL-INDOLE INHIBITORS OF METALLO-BETA-LACTAMASES” (Oxford University Innovation Limited, priority 2021, published 2024).
Where two headings read alike, the source gives them in different places.

Tests used:
VIM-2 = VIM-2 (Escherichia coli, UniProt Q5U7L7); experiment: MBL inhibition, FC-5 fluorescence assay, VIM-2; assay type: biochemical
Method: (§1) Inhibitors were tested using a panel of the clinically relevant B1 MBLs (NDM-1, VIM-1, -2 and IMP-1). Activities were assayed by monitoring the release of a fluorophore following the enzymatic breakdown of the cephalosporin FC-5 (https://pubs.acs.org/doi/abs/10.1021/jm400769b). FC-5 assays were conducted in clear bottomed 384 black well microplates (Greiner); the initial rate of reaction was assessed by monitoring the fluorescence intensity (λex=380 nm and λem=460 nm) using a Pherstar FS (BMG LabTech) plate reader. Initial rates of reaction were determined and dose-response analyses conducted in GraphPad Prism. Dose-response curves were fitted using the log(inhibitor) vs normalized response—variable slope model of GraphPad Prism 12. Each concentration point for routine screening was conducted with 4 intra-plate replicates.

NDM-1 = NDM-1 (Klebsiella pneumoniae, UniProt C7C422); experiment: MBL inhibition, FC-5 fluorescence assay, NDM-1; assay type: biochemical
Chain of NDM-1 (C7C422 29-270, looked up, species assumed): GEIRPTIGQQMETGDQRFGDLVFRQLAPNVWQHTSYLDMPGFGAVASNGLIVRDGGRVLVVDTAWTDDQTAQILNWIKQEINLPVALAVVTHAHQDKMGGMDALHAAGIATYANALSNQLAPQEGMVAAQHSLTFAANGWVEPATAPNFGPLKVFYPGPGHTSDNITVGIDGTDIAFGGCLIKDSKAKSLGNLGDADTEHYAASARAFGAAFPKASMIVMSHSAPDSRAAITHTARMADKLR
Method: as §1

IMP-1 = IMP-1 (Serratia marcescens, UniProt P52699); experiment: MBL inhibition, FC-5 fluorescence assay, IMP-1; assay type: biochemical
Chain of IMP-1 (P52699 19-246, looked up, species assumed): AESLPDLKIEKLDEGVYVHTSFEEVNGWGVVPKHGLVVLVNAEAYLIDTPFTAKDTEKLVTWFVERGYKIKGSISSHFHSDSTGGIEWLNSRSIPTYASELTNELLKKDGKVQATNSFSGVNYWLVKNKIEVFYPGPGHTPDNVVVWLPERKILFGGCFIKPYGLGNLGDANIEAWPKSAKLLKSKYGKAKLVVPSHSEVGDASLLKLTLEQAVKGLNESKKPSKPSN
Method: as §1

VIM-1 = VIM-1 (Pseudomonas aeruginosa, UniProt A0A0F7KYQ8); experiment: MBL inhibition, FC-5 fluorescence assay, VIM-1; assay type: biochemical
Method: as §1

[1] = system: Acinetobacter baumannii NDM-1; experiment: Antibiotic susceptibility testing (MIC), AB NDM-1; assay type: cell-based; conditions: agar or broth dilution (CLSI/EUCAST)
Method: (§2) Antibiotic susceptibility testing was performed using the agar or broth dilution method, in line with the Clinical and Laboratory Standards Institute (CLSI) and European Committee on Antimicrobial Susceptibility Testing (EUCAST) requirements.

Escherichia coli NDM-7 = experiment: Antibiotic susceptibility testing (MIC), EC NDM-7; assay type: cell-based; conditions: agar or broth dilution (CLSI/EUCAST)
Method: as §2

Escherichia coli NDM-1 = experiment: Antibiotic susceptibility testing (MIC), EC NDM-1; assay type: cell-based; conditions: agar or broth dilution (CLSI/EUCAST)
Method: as §2

[2] = Plasma protein binding, equilibrium dialysis, human plasma; assay type: in vitro ADME; conditions: pH 7.4, equilibrium dialysis (RED) 4 hours at 37° C., read-out: Plasma protein binding, fu, Human
Method: The fraction of unbound compound (fu) in plasma from human or other animal species was determined by equilibrium dialysis at 37° C. for 4 hours using the Rapid Equilibrium Dialysis (RED) device (ThermoFisher Scientific). The test compound at a concentration of 10 μM was added to plasma and dialyzed against isotonic phosphate buffer (67 mM, pH 7.4) over 4 hours at 37° C. After dialysis, compound concentrations in buffer and plasma were quantified by LC-MS/MS. In parallel the stability of the compound in plasma was determined by incubating drug-spiked plasma (10 μM) at 37° C. for 4 hours, meanwhile the control plasma sample was kept in the freezer. The concentration of the compound in both samples was quantified by LC-MS/MS (Waters Corp, Milford, MA, USA).

[3] = FC-5 cephalosporin substrate, ranges of obtained pIC50, read-out: pIC50 VIM-2 (converted)
[4] = FC-5 cephalosporin substrate, fluorescence, ranges of obtained pIC50, read-out: pIC50 NDM-1 (converted)
[5] = FC-5 cephalosporin substrate, fluorescence, ranges of obtained pIC50, read-out: pIC50 IMP-1 (converted)
[6] = FC-5 cephalosporin substrate, ranges of obtained pIC50, read-out: pIC50 VIM-1 (converted)

Row | SMILES | IC50 (VIM-2; [3]) [nM] | IC50 (NDM-1; [4]) [nM] | IC50 (IMP-1; [5]) [nM] | IC50 (VIM-1; [6]) [nM] | MIC values AB NDM-1 [1] | MIC values EC NDM-7 (Escherichia coli NDM-7) | MIC values EC NDM-1 (Escherichia coli NDM-1) | fraction unbound at 4 h, 10 μM [2] | IC50 (VIM-2; pIC50 VIM-2, FC-5 cephalosporin substrate, ranges of obtained pIC50) [nM] | IC50 (NDM-1) [nM] | IC50 (IMP-1) [nM] | IC50 (VIM-1; pIC50 VIM-1, FC-5 cephalosporin substrate, ranges of obtained pIC50) [nM]
1 | C[C@@H](c1cccc2c(-c3ccc(CS(C)(=O)=O)c(F)c3)c(C(=O)O)[nH]c12)N1CC2(CNC2)OC1=O [IC-65, (S)-3-(3-fluoro-4-((methylsulfonyl)methyl)phenyl)-7-(1-(6-oxo-5-oxa-2,7-diazaspiro[3.4]octan-7-yl)ethyl)-1H-indole-2-carboxylic acid] | 0.1 to 1 | 0.1 to 1 | > 10 | 1 to 10 | B (B MIC values 2 ÷ 8) | A (A = MIC values ≤ 1) | A (A = MIC values ≤ 1) | – | – | – | – | –
2 | C[C@@H](c1cccc2c(-c3cn[nH]c(=O)c3)c(C(=O)O)[nH]c12)N1C[C@]2(C[C@@H](CN)C2)OC1=O [IC-33, 3-(6-oxo-1,6-dihydropyridazin-4-yl)-7-[(1S)-1-[(2r,4r)-2-(aminomethyl)-6-oxo-5-oxa-7-azaspiro[3.4]octan-7-yl]ethyl]-1H-indole-2-carboxylic acid] | 0.1 to 1 | 1 to 10 | > 10 | 1 to 10 | B (B MIC values 2 ÷ 8) | A (A = MIC values ≤ 1) | A (A = MIC values ≤ 1) | 0.05 to 0.25 | – | – | – | –
3 | COc1ncc(-c2c(C(=O)O)[nH]c3c([C@H](C)N4C[C@]5(C[C@@H](CN)C5)OC4=O)cccc23)cc1O [IC-27, (S)-7-(1-(2-(aminomethyl)-6-oxo-5-oxa-7-azaspiro[3.4]octan-7-yl)ethyl)-3-(5-hydroxy-6-methoxypyridin-3-yl)-1H-indole-2-carboxylic acid] | < 0.1 | 0.1 to 1 | > 10 | 1 to 10 | B (B MIC values 2 ÷ 8) | A (A = MIC values ≤ 1) | B (B MIC values 2 ÷ 8) | 0.05 to 0.25 | – | – | – | –
4 | C[C@@H](c1cccc2c(-c3cnc(O)c(O)c3)c(C(=O)O)[nH]c12)N1C[C@]2(C[C@@H](CN)C2)OC1=O [IC-29, 7-((S)-1-((2S,4r)-2-(aminomethyl)-6-oxo-5-oxa-7-azaspiro[3.4]octan-7-yl)ethyl)-3-(5,6-dihydroxypyridin-3-yl)-1H-indole-2-carboxylic acid] | 1 to 10 | > 10 | > 10 | > 10 | C (C = MIC values > 8) | A (A = MIC values ≤ 1) | B (B MIC values 2 ÷ 8) | 0.005 to 0.05 | – | – | – | –
5 | C/C(=C\C(=O)N1CCOCC1)c1cccc2c(-c3ccc(CS(C)(=O)=O)c(F)c3)c(C(=O)O)[nH]c12 [IC-105, 3-[3-Fluoro-4-(methanesulfonylmethyl)phenyl]-7-[(2E)-4-(morpholin-4-yl)-4-oxobut-2-en-2-yl]-1H-indole-2-carboxylic acid] | > 10 | > 10 | > 10 | > 10 | C (C = MIC values > 8) | C (C = MIC values > 8) | C (C = MIC values > 8) | – | – | – | – | –
6 | C/C(=C\C(=O)NCCc1c[nH]cn1)c1cccc2c(-c3ccc(CS(C)(=O)=O)c(F)c3)c(C(=O)O)[nH]c12 [IC-103, 3-[3-Fluoro-4-(methanesulfonylmethyl)phenyl]-7-[(1E)-1-{[2-(1H-imidazol-4-yl)ethyl]carbamoyl}prop-1-en-2-yl]-1H-indole-2-carboxylic acid] | > 10 | > 10 | > 10 | > 10 | C (C = MIC values > 8) | C (C = MIC values > 8) | C (C = MIC values > 8) | – | – | – | – | –
7 | C=C(CC(=O)NCCc1c[nH]cn1)c1cccc2c(-c3ccc(CS(C)(=O)=O)c(F)c3)c(C(=O)O)[nH]c12 [IC-106, 7-(4-((2-(1H-Imidazol-4(5)-yl)ethyl)amino)-4-oxobut-1-en-2-yl)-3-(3-fluoro-4-((methylsulfonyl)-methyl)phenyl)-1H-indole-2-carboxylic acid] | > 10 | > 10 | > 10 | > 10 | C (C = MIC values > 8) | C (C = MIC values > 8) | C (C = MIC values > 8) | – | – | – | – | –
8 | COc1cc(-c2c(C(=O)O)[nH]c3c([C@H](C)N4CC5(CC(CN)C5)OC4=O)cccc23)ccn1 (stereo partly drawn) [IC-20, 7-((1S)-1-(2-(aminomethyl)-6-oxo-5-oxa-7-azaspiro[3.4]octan-7-yl)ethyl)-3-(2-methoxypyridin-4-yl)-1H-indole-2-carboxylic acid] | 0.1 to 1 | 0.1 to 1 | > 10 | 1 to 10 | B (B MIC values 2 ÷ 8) | A (A = MIC values ≤ 1) | A (A = MIC values ≤ 1) | – | – | – | – | –
9 | C[C@@H](c1cccc2c(-c3ccc(CN4CCOCC4)nc3)c(C(=O)O)[nH]c12)n1cc(CN2CC(N)C2)oc1=O [IC-52, 7-[(1S)-1-{5-[(3-aminoazetidin-1-yl)methyl]-2-oxo-2,3-dihydro-1,3-oxazol-3-yl}ethyl]-3-{6-[(morpholin-4-yl)methyl]pyridin-3-yl}-1H-indole-2-carboxylic acid] | 1 to 10 | < 0.1 | > 10 | > 10 | C (C = MIC values > 8) | B (B MIC values 2 ÷ 8) | B (B MIC values 2 ÷ 8) | – | – | – | – | –
10 | CC(c1cccc2c(-c3ccc(CS(C)(=O)=O)c(F)c3)c(C(=O)O)[nH]c12)N1CC(CCCN)OC1=O (single isomer, unassigned) [IC-84, 7-(1-(5-(3-Aminopropyl)-2-oxooxazolidin-3-yl)ethyl)-3-(3-fluoro-4-((methylsulfonyl)methyl)phenyl)-1H-indole-2-carboxylic acid] | 0.1 to 1 | 0.1 to 1 | > 10 | 0.1 to 1 | – | – | – | – | – | – | – | –
11 | C[C@@H](c1cccc2c(-c3ccc(CS(C)(=N)=O)c(F)c3)c(C(=O)O)[nH]c12)n1cc(CN2CC(N)C2)oc1=O (stereo partly drawn) [IC-53, 7-[(1S)-1-{5-[(3-aminoazetidin-1-yl)methyl]-2-oxo-2,3-dihydro-1,3-oxazol-3-yl}ethyl]-3-(3-fluoro-4-{[imino(methyl)oxo-λ^6-sulfanyl]methyl}phenyl)-1H-indole-2-carboxylic acid] | 1 to 10 | < 0.1 | > 10 | 1 to 10 | B (B MIC values 2 ÷ 8) | A (A = MIC values ≤ 1) | A (A = MIC values ≤ 1) | – | – | – | – | –
12 | CC(c1cccc2c(-c3ccc(CS(C)(=O)=O)c(F)c3)c(C(=O)O)[nH]c12)N1C(=O)c2cc(O)c(O)cc2C1=O (stereo not drawn) [IC-98, 7-[1-(5,6-Dihydroxy-1,3-dioxo-2,3-dihydro-1H-isoindol-2-yl)ethyl]-3-[3-fluoro-4-(methanesulfonylmethyl)phenyl]-1H-indole-2-carboxylic acid] | > 10 | > 10 | > 10 | > 10 | – | – | – | – | – | – | – | –
13 | CC(c1cccc2c(-c3ccc(CS(C)(=O)=O)c(F)c3)c(C(=O)O)[nH]c12)n1cc(CCC[N+](C)(C)C)oc1=O (stereo not drawn) [IC-76, 3-(3-(1-(2-carboxy-3-(3-fluoro-4-((methylsulfonyl)methyl)phenyl)-1H-indol-7-yl)ethyl)-2-oxo-2,3-dihydrooxazol-5-yl)-N,N,N-trimethylpropan-1-aminium] | – | – | – | – | – | – | – | – | > 10 | 1 to 10 | > 10 | > 10
14 | CC(c1cccc2c(-c3ccc(CS(C)(=O)=O)c(F)c3)c(C(=O)O)[nH]c12)n1cc(CNS(N)(=O)=O)nn1 (stereo not drawn) [IC-8, 3-(3-Fluoro-4-((methylsulfonyl)methyl)phenyl)-7-(1-(4-((sulfamoylamino)methyl)-1H-1,2,3-triazol-1-yl)ethyl)-1H-indole-2-carboxylic acid] | 1 to 10 | > 10 | > 10 | > 10 | – | – | – | 0.05 to 0.25 | – | – | – | –
